Reference: article PMC2397535 (Breast Cancer Research : BCR, 2008)
Like-named read-outs stand apart in the source and are kept apart here. Marks after values point to notes of the source that are not given here.

Experiments:
MAXF 1384 = test: clonogenic (soft agar colony formation) assay, primary breast tumor; type: cell-based, human
[1] = system: human breast cancer explants; test: clonogenic assay, six human breast cancer explants (summary values); type: cell-based
MAXF 583 = test: clonogenic (soft agar colony formation) assay, primary breast tumor; type: cell-based, human
MAXF 574 = test: as above; type: cell-based, human
[2] = system: panel of human breast cancer cell lines; test: antiproliferative effect, panel of seven breast cancer cell lines (summary values); type: cell-based
phospho-AKT (Ser473) = test: AKT phosphorylation in BT-474 xenografts (Western blot); type: in vivo, mice
Protocol: (§1) To assess total levels of AKT, phosphorylated AKT, β-tubulin, and ERBB2 in the cell extracts, 20 to 30 μg of total protein was resolved by the appropriate-percentage SDS-PAGE. The following antibodies were used for immunoblotting: anti-AKT (cat. no. 9272, rabbit polyclonal; Cell Signaling Technology, Inc.), anti-phospho-AKT (Ser473) (cat. no. 9271, rabbit polyclonal; Cell Signaling Technology, Inc.), anti-β-tubulin (cat. no. T 4026, mouse monoclonal, clone Tub2.1; Sigma-Aldrich, St. Louis, MO, USA), and anti-ERBB2 (cat. no. 28-0004, rabbit polyclonal; Zymed Laboratories Inc., now part of Invitrogen Corporation, Carlsbad, CA, USA). Bound antibodies on PVDF immunoblots were detected by Amersham ECL (Amersham, now part of GE Healthcare, Little Chalfont, Buckinghamshire, UK) or infrared fluorescence detection (LI-COR Biosciences, Lincoln, NE, USA).
(§2) Invasive procedures were performed under Forene anesthesia. […] The animals were fed food and water ad libitum.

MAXF 1162 = test: clonogenic (soft agar colony formation) assay, primary breast tumor; type: cell-based, human
BT20 = test: antiproliferative effect (GI50), breast cancer cell line; type: cell-based; details: Homo sapiens, BT-20
HSP90α = details: read-out: IC50 (median inhibition concentration); cited from earlier work
MAXF 401 = test: clonogenic (soft agar colony formation) assay, primary breast tumor; type: cell-based, human
MDA-MB-468 = test: antiproliferative effect (GI50), breast cancer cell line; type: cell-based; details: Homo sapiens
[3] = system: ERBB2, AKT, phospho-AKT in BT-474 cells; test: client protein levels in BT-474 cells (Western blot); type: cell-based, human
Protocol: as §1

MDA-MB-231 = test: antiproliferative effect (GI50), breast cancer cell line; type: cell-based; details: Homo sapiens
[4] = system: BT-474 breast cancer xenograft; test: antitumor effect in BT-474 breast cancer xenograft model; type: in vivo, mice; details: for T/C / Tumor volume change: day 20
Protocol: as §2
(§3) Tumor growth and body weights were monitored at regular intervals. The xenograft tumor sizes were measured manually with calipers, and the tumor volume was estimated using the formula (w × l × h × π/6), where width (w), height (h), and length (l) are the three largest diameters.
(§4) When applicable, results are presented as mean ± standard error of the mean. Tumor and body weight data were analyzed by analysis of variance (ANOVA) with the post hoc Dunnett test for comparison of treatment versus control groups. The post hoc Tukey test was used for intragroup comparison. Statistical analysis was performed using GraphPad Prism 5 (GraphPad Software, Inc., San Diego, CA, USA). As a measure of efficacy, the %T/C value is calculated at the end of the experiment according to (Δtumor volumetreated/Δtumor volumecontrol) × 100, where Δtumor volumes represent the mean tumor volume on the evaluation day minus the mean tumor volume at the start of the experiment.

MDA-MB-157 = test: antiproliferative effect (GI50), breast cancer cell line; type: cell-based; details: Homo sapiens
MCF-7 = test: as above; type: cell-based; details: Homo sapiens, MCF7
MAXF 1322 = test: clonogenic (soft agar colony formation) assay, primary breast tumor; type: cell-based, human
[5] = tolerability (body weight, survival) in BT-474 tumor-bearing nude mice; type: in vivo
Protocol: as §2, §3, §4

SkBr3 = test: antiproliferative effect (GI50), breast cancer cell line; type: cell-based; details: Homo sapiens, SK-BR-3

CCNC(=O)c1noc(-c2cc(C(C)C)c(O)cc2O)c1-c1ccc(CN2CCOCC2)cc1 [NVP-AUY922]
IC70 (colony formation) (MAXF 1384): 477 nM | IC50 (MAXF 1384; Homo sapiens): 209 nM | GI50 ([1]; Homo sapiens, one highly resistant tumor explant, highest concentration evaluated, read-out: GI50): > 10000 nM | average GI70 ([1]; five out of the six human breast cancer explants): 379 nM | GI50 ([1]; five out of the six human breast cancer explants, read-out: average GI50): 191 nM | IC70 (colony formation) (MAXF 583): 569 nM | IC50 (MAXF 583; Homo sapiens): 333 nM | IC70 (colony formation) (MAXF 574): >10,000 nM | IC50 (MAXF 574; Homo sapiens): > 10000 nM | GI50 ([2]; seven cell lines, read-out: GI50 values, range over human breast cancer cell lines): 3 to 126 nM | GI50 ([2]; six of the seven breast cancer cell lines, read-out: average GI50 value): 5.4 nM | phospho-AKT levels (phospho-AKT (Ser473); single dose 30 mg/kg i.v.): reductions in phospho-AKT levels | phospho-AKT levels (phospho-AKT (Ser473); single i.v. dose 25 mg/kg, tumors dissected 6 hours later): reduction in phospho-AKT levels | IC70 (colony formation) (MAXF 1162): 505 nM | IC50 (MAXF 1162; Homo sapiens): 304 nM | GI50 (BT20): 4 ± 1.4 nM | IC50 (HSP90α): […] | IC70 (colony formation) (MAXF 401): 295 nM | IC50 (MAXF 401; Homo sapiens, MAXF401): 78 nM | GI50 (MDA-MB-468): 6.3 ± 2.6 nM | concentration required for significant reduction of protein AKT levels [3]: […] | phospho-AKT levels ([3]; 50 nM): decrease in the levels of phospho-AKT | total ERBB2 levels ([3]; 50 nM): decrease in total ERBB2 levels | GI50 (MDA-MB-231): 7 ± 1.7 nM | T/C ([4]; 8.3 mg/kg once per week): 95 percentage | Tumor volume change ([4]; 8.3 mg/kg once per week): 252 ± 73 cubic millimeters | T/C ([4]; 17 mg/kg once per week): 72 percentage | Tumor volume change ([4]; 17 mg/kg once per week): 191 ± 61 cubic millimeters | T/C ([4]; 25 mg/kg once per week): 12 percentage | Tumor volume change ([4]; 25 mg/kg once per week): 32 ± 15^a cubic millimeters | T/C ([4]; 41 mg/kg once per week): 3 percentage | Tumor volume change ([4]; 41 mg/kg once per week): 9 ± 13^a cubic millimeters | T/C ([4]; 58 mg/kg once per week): 8 percentage | Tumor volume change ([4]; 58 mg/kg once per week): 22 ± 26^a cubic millimeters | tumor response ([4]; once per week i.v., 8.3 to 17 mg/kg): did not result in a significant effect on tumor growth | tumor response ([4]; once per week i.v., 25 to 58 mg/kg): highly efficacious | tumor growth ([4]; single i.v. dose 17 mg/kg): indication of retarded tumor growth | time without significant tumor growth after administration ([4]; single i.v. dose 25 mg/kg): […] | tumor size at end corresponds to control tumor size this much earlier ([4]; single i.v. dose 25 mg/kg): approximately 10 days | tumor size versus control group at the end of the experiment ([4]; single i.v. dose 25 mg/kg, 21 days, P < 0.05): statistically significantly smaller | tumor response ([4]; three times per week i.v., 10 mg/kg): did not result in a significant effect on tumor growth | tumor response ([4]; three times per week i.v., 30 and 50 mg/kg): tumor regression | GI50 (MDA-MB-157): 126 ± 37 nM | GI50 (MCF-7): 8.8 ± 1.8 nM | IC70 (colony formation) (MAXF 1322): 48 nM | IC50 (MAXF 1322; Homo sapiens): 29 nM | body weights compared with vehicle ([5]; single i.v. administration, 17 or 25 mg/kg): did not affect body weights | body weight ([5]; three times per week i.v., all dose levels (10, 30, 50 mg/kg)): significant body weight loss | GI50 (SkBr3): 3.3 ± 0.9 nM
